Here are results for seven compounds from ChEMBL document CHEMBL1134401, “Property-based design: optimization of drug absorption and pharmacokinetics” (J Med Chem, 2001).

A short description of data set [1]: Half life was measured as time taken to decrease half of its initial concentration.
A short description of data set [2]: Volume of distribution of the compound. The note with it: in vivo.
Data set [3] in a line: Partition coefficient (logD). The note with it: octanol/water.
Data set [4] is described as follows: Plasma clearance of the compound.

Usually half-life stands for the time needed for the level to fall by half in the phase considered. Low readings indicate fast loss, high ones slow loss. As a reminder, the Vd is a proportionality between amount in the body and measured concentration, not a real space. The term logD denotes the decadic logarithm of the distribution of all forms, ionised or not, between an organic phase and buffer at a given pH. Low values mean a more hydrophilic compound, high ones a more lipophilic compound. Usually clearance stands for the volume of plasma or blood freed of the substance per unit of time. The low end stands for inefficient removal, the high end for efficient removal. For `CCOC(=O)C1=C(C)NC(C)=C(C(=O)OC)C1c1cccc([N+](=O)[O-])c1` (stereo unspecified) [NITRENDIPINE], the half-life in data set [1] was 4 h. The compound also had a volume of distribution (Vd) in data set [2] of 3.8 L/kg. The pH-dependent lipophilicity (logD) in data set [3] is recorded as 4.2. In data set [4], this compound showed a clearance of 21 mL/min/kg.

Regarding `CCOC(=O)C1=C(C)NC(C)=C(C(=O)OC)C1c1cccc(Cl)c1Cl` (stereo unspecified) [FELODIPINE], the logD in data set [3] was found to be 4.8.

As to `COC(=O)C1=C(C)NC(C)=C(C(=O)OC)C1c1ccccc1[N+](=O)[O-]` [NIFEDIPINE], in data set [1], the half-life is 1.9 h. This compound came in with a Vd in data set [2] of 1 L/kg.

Compound `CO[C@H]1/C=C/O[C@@]2(C)Oc3c(C)c(O)c4c(c3C2=O)C2=NC3(CCN(CC(C)C)CC3)NC2=C(NC(=O)/C(C)=C\C=C\[C@H](C)[C@H](O)[C@@H](C)[C@@H](O)[C@@H](C)[C@H](OC(C)=O)[C@@H]1C)C4=O` [RIFABUTIN] had a half-life in data set [1] of 45 h. For the same compound, in data set [2], the distribution volume (Vd) turned out to be 266 L/kg. The same compound returned a clearance in data set [4] of 80 mL/min/kg.

Take `CCOC(=O)C1=C(COCCN)NC(C)=C(C(=O)OC)C1c1ccccc1Cl` (stereo unspecified) [AMLODIPINE]: in data set [3], the logD was 1.8.

`CO[C@H]1/C=C/O[C@@]2(C)Oc3c(C)c(O)c4c(O)c(c(/C=N/N5CCN(C)CC5)c(O)c4c3C2=O)NC(=O)/C(C)=C\C=C\[C@H](C)[C@H](O)[C@@H](C)[C@@H](O)[C@@H](C)[C@H](OC(C)=O)[C@@H]1C` [RIFAMPIN]: the Vd in data set [2] amounted to 8.8 L/kg. Moreover, in data set [4], the clearance worked out at 32 mL/min/kg.

Consider `CO[C@H]1/C=C/O[C@@]2(C)Oc3c(C)c(O)c4c(O)c(cc(O)c4c3C2=O)NC(=O)/C(C)=C\C=C\[C@H](C)[C@H](O)[C@@H](C)[C@@H](O)[C@@H](C)[C@H](OC(C)=O)[C@@H]1C` [RIFAMYCIN], for which the half-life in data set [1] is 0.33 h. This compound displayed a distribution volume (Vd) in data set [2] of 1.2 L/kg. In data set [4], the clearance was found to be 80 mL/min/kg.
